{"source": "patent US10675267B2", "about": "“Methods for detection and eradication of myeloid leukemia stem cells” (priority 2015, dated 2020)", "key": {"[1]": {"system": "HEK293 cells", "test": "In vitro splicing of endogenous transcripts (qRT-PCR, RT-PCR) in HEK293", "format": "cell-based", "protocol": "(§1) For qRT-PCR analysis of relative total mRNA expression levels or splice isoform-specific expression analyses, cDNA was synthesized using 50 ng-1 pg of template RNA in 20 μL reaction volumes using the First-Strand SUPERSCRIPT™ III Reverse Transcriptase Supermix (Life Technologies) followed by incubation with RNase H according to the manufacturer's protocol and as described previously. All cDNA products were stored at −20° C. Splice isoform-specific primers for PTK2B-202 were designed to bind to unique exon junctions for this transcript, which lacks exon 24. […] For standard qRT-PCR, human HPRT mRNA transcript levels were used to normalize Ct values obtained for each gene, and relative expression levels were calculated using the 2^−ddCt method. […]\nas §1, with “[…]” for “pg”, “[…]” for “μL”, “previously (Abrahamsson et al., 2009; Crews et al., 2015).” for “previously. All cDNA products were stored at −20° C. Splice isoform-specific primers for PTK2B-202 were designed to bind to unique exon junctions for this transcript, which lacks exon 24.”, “2-ddCt” for “2^−ddCt”"}, "[2]": {"test": "Mouse weights over the two-week treatment period (tolerability)", "format": "in vivo", "details": "5-10 mg/kg intravenously, three doses over two weeks", "protocol": "For in vivo treatments, a 10 mg/mL stock solution of 17S-FD-895 solubilized in DMSO was used. After randomization, AML-engrafted mice were dosed intravenously with 17S-FD-895 (5-10 mg/kg) or vehicle (for AML-08, vehicle control=15% DMSO in PBS; for AML-37, vehicle control=20% DMSO in PBS) three times over a two-week period, with the first dose given on day 1, the second on day 7, and the third on day 14. For preparation of RNA from human LSC-enriched populations, single cell suspensions from spleen and bone marrow were CD34 double-selected (over two LS selection columns, Miltenyi) and 1-2×10^5 cells were collected in lysis buffer or pooled according to treatment group for serial transplantation assays.\nAll animal studies were performed in accordance with UCSD and NIH-equivalent ethical guidelines and were approved by the Institutional Animal Care and Use Committee. Three AML PRIMAGRAFT™ models were established from AML LSC-enriched cell fractions (1-2×10^5 CD34^+ cells) transplanted intrahepatically into neonatal Rag2^−/−γc^−/− as previously described (Abrahamsson et al., 2009), or intravenously into sublethally irradiated adult (6-8 weeks old) NOD/SCID-IL2RG mice (NSGS, Jackson Laboratory). […] After treatment, hematopoietic tissues were analyzed as described following. […]"}}, "data": [{"smiles": "CC[C@H](OC)[C@@H](C)[C@H]1O[C@@H]1[C@@H](O)[C@H](C)/C=C/C=C(\\C)[C@H]1OC(=O)C[C@H](O)CC[C@@](C)(O)[C@@H](OC(C)=O)/C=C/[C@@H]1C", "note": "(stereo in doubt) [Formula 17S-FD-895, 17S-FD-895]", "values": [{"measurement": "MCL1-S expression (qRT-PCR)", "setting": "[1]; HEK293, 0.01-10 μM, 4 hrs", "result": "low doses of 17S-FD-895 increased MCL1-S expression, this effect was reversed at high doses"}, {"measurement": "DNAJB1 intron 2 levels", "setting": "[1]; HEK293 cells, compared with MOLM-13", "result": "to a lesser extent"}, {"measurement": "tolerability / weight changes", "setting": "[2]", "result": "well tolerated, with no significant weight changes detected"}]}]}
